The results in this text go back to patent publication US10562850B2, “Human plasma kallikrein inhibitors” (priority 2015, dated 2020).

Chain of human plasma kallikrein (P03952 391-638): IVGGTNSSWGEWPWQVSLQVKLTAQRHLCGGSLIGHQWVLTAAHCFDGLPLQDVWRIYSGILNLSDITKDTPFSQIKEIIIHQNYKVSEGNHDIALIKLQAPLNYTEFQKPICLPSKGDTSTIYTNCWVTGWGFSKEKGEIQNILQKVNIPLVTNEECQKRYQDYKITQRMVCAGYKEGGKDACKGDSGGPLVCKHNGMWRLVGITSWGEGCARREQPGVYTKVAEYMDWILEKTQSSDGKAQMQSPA
Chain of human plasma kallikrein (P03952 20-390 partner): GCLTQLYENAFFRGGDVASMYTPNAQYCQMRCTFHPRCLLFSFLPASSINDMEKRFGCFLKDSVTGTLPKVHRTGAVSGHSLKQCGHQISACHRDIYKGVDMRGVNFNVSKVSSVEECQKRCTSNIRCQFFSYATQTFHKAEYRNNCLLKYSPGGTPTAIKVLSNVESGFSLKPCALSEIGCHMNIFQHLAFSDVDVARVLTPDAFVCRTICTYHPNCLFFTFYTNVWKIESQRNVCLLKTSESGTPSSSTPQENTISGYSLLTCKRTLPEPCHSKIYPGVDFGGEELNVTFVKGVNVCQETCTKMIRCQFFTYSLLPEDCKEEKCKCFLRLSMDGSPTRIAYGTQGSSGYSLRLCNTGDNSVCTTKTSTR

The target of this assay is human plasma kallikrein (Homo sapiens (Human), UniProt P03952). As to the kind of experiment: Plasma Kallikrein Activity Assay (chromogenic substrate S2302). The class given is biochemical. Conditions: 2 nM kallikrein, 80 μM S2302, 30° C., pH 7.8; Cheng-Prusoff. On the procedure:
Plasma Kallikrein Activity Assay.
The effect of compounds of the invention on human plasma kallikrein activity was determined using the chromogenic substrates (DiaPharma Group, Inc., West Chester, Ohio, USA). In these experiments, 2 nM kallikrein (Enzyme Research Laboratories, South Bend, Ind., USA) was incubated with 80 μM S2302 (H-D-Pro-Phe-Arg-p-nitroaniline) in the absence or presence of increasing concentrations of compounds of the invention in a final volume of 200 μL Tris-HCl buffer (200 mM NaCl; 2.5 mM CaCl2; 50 mM Tris-HCl, pH 7.8).
After incubation at 30° C., the activity of kallikrein was measured as a change in absorbance at OD 405 nm using BioTek PowerWave X340 Microplate Reader (Winooski, Vt., USA). Data were analyzed using SigmaPlot software (Systat Software, Inc., San Jose, Calif., USA) (Four Parameter Logistic Curve). Ki values for the inhibitors were determined using the Cheng-Prusoff equation (Biochem. Pharmacol. 1973, 22, 3099).
What is called Ki is the dissociation constant of the complex between target and ligand, obtained from inhibition or displacement. For the molecule `NC(CCC1CC1)(c1ccc(F)c(NC(=O)[C@H]2C[C@](O)(c3ccccc3)CN2C(=O)Nc2ccc(Cl)cn2)c1)c1ccccn1` (stereo partly drawn) [Compound 32a, (2R,4S)-N2-(5-((+)-1-amino-3-cyclopropyl-1-(pyridin-2-yl)propyl)-2-fluorophenyl)-N1-(5-chloropyridin-2-yl)-4-hydroxy-4-phenylpyrrolidine-1,2-dicarboxamide], the inhibitory constant (Ki) was less than 50 nM. With `O=C(Nc1ccc(Cl)cn1)NC(CCC1CC1)(c1ccc(F)c(NC(=O)[C@H]2C[C@](O)(c3ccccc3)CN2C(=O)Nc2ccc(Cl)cn2)c1)c1ccccn1` (stereo partly drawn) [Compound 32b, (2R,4S)-N1-(5-chloropyridin-2-yl)-N2-(5-(1-(3-(5-chloropyridin-2-yl)ureido)-3-cyclopropyl-1-(pyridin-2-yl)propyl)-2-fluorophenyl)-4-hydroxy-4-phenylpyrrolidine-1,2-dicarboxamide], the Ki is more than 100 nM. The molecule `CC(C)(C)[S@@+]([O-])NC(CCC1CC1)(c1cccc(C#N)c1)c1ccc(F)c(NC(=O)[C@H]2C[C@H](N=[N+]=[N-])CN2C(=O)Nc2ccc(Cl)cc2)c1` (stereo partly drawn) [Compound 33b, (2R,4S)-4-azido-N1-(4-chlorophenyl)-N2-(5-((+)-1-(3-cyanophenyl)-3-cyclopropyl-1-((R)-1,1-dimethylethylsulfinamido)propyl)-2-fluorophenyl)pyrrolidine-1,2-dicarboxamide] came in with a Ki of more than 100 nM. Molecule `N#Cc1cccc(C(N)(CCC2CC2)c2ccc(F)c(NC(=O)[C@H]3C[C@H](N)CN3C(=O)Nc3ccc(Cl)cc3)c2)c1` (stereo partly drawn) [Compound 33d, (2R,4S)-4-amino-N2-(5-((+)-1-amino-1-(3-cyanophenyl)-3-cyclopropylpropyl)-2-fluorophenyl)-N1-(4-chlorophenyl)pyrrolidine-1,2-dicarboxamide] yielded an inhibitory constant (Ki) of more than 100 nM. Molecule `CO[C@]1(c2ccccc2)C[C@H](C(=O)Nc2cc(C(CCC3CC3)(N[S@@+]([O-])C(C)(C)C)c3ccccn3)ccc2F)N(C(=O)OC(C)(C)C)C1` (stereo partly drawn) [Compound 34b, (2R,4S)-tert-butyl-2-(5-((+)-3-cyclopropyl-1-((S)-1,1-dimethylethylsulfinamido)-1-(pyridin-2-yl)propyl)-2-fluorophenylcarbamoyl)-4-methoxy-4-phenylpyrrolidine-1-carboxylate] returned a Ki of more than 100 nM.

As to `CO[C@]1(c2ccccc2)C[C@H](C(=O)Nc2cc(C(N)(CCC3CC3)c3ccccn3)ccc2F)N(C(=O)Nc2ccc(Cl)cc2)C1` (stereo partly drawn) [Compound 34d, (2R,4S)-N2-(5-((+)-1-amino-3-cyclopropyl-1-(pyridin-2-yl)propyl)-2-fluorophenyl)-N1-(4-chlorophenyl)-4-methoxy-4-phenylpyrrolidine-1,2-dicarboxamide], the Ki is less than 50 nM. The same measure for `CO[C@]1(c2ccccc2)C[C@H](C(=O)Nc2cc(C(N)(CCC3CC3)c3ccccn3)ccc2F)N(C(=O)Nc2ccc(Cl)cn2)C1` (stereo partly drawn) [Compound 35a, (2R,4S)-N2-(5-((+)-1-amino-3-cyclopropyl-1-(pyridin-2-yl)propyl)-2-fluorophenyl)-N1-(5-chloropyridin-2-yl)-4-methoxy-4-phenylpyrrolidine-1,2-dicarboxamide]: 50 to 100 nM; for `CO[C@@H]1C[C@H](C(=O)Nc2cc(C(N)(CCC3CC3)c3ccccn3)ccc2F)N(C(=O)Nc2ccc(Cl)cn2)C1` (stereo partly drawn) [Compound 36d, (2R,4R)-N2-(5-((+)-1-amino-3-cyclopropyl-1-(pyridin-2-yl)propyl)-2-fluorophenyl)-N1-(5-chloropyridin-2-yl)-4-methoxypyrrolidine-1,2-dicarboxamide]: more than 100 nM; for `CO[C@@H]1C[C@H](C(=O)Nc2cc(C(N)(CCC3CC3)c3ccccn3)ccc2F)N(C(=O)Nc2ccc(Cl)cn2)C1` (stereo partly drawn) [Compound 37d, (2R,4R)-N2-(5-((+)-1-amino-3-cyclopropyl-1-(pyridin-2-yl)propyl)-2-fluorophenyl)-N1-(5-chloropyridin-2-yl)-4-methoxypyrrolidine-1,2-dicarboxamide]: less than 50 nM. In the case of `CCC1(O)C[C@H](C(=O)Nc2cc(C(N)(CCC3CC3)c3ccccn3)ccc2F)N(C(=O)Nc2ccc(Cl)cn2)C1` (stereo partly drawn) [Compound 38d, (2R)-N2-(5-((+)-1-amino-3-cyclopropyl-1-(pyridin-2-yl)propyl)-2-fluorophenyl)-N1-(5-chloropyridin-2-yl)-4-ethyl-4-hydroxypyrrolidine-1,2-dicarboxamide], the Ki was less than 50 nM. On to `NC(CCC1CC1)(c1ccncc1)c1ccc(F)c(NC(=O)[C@H]2C[C@](O)(c3ccccc3)CN2C(=O)Nc2ccc(Cl)cn2)c1` (stereo partly drawn) [Compound 39h, (2R,4S)-N2-(5-((+)-1-amino-3-cyclopropyl-1-(pyridin-4-yl)propyl)-2-fluorophenyl)-N1-(5-chloropyridin-2-yl)-4-hydroxy-4-phenylpyrrolidine-1,2-dicarboxamide], for which the Ki was less than 50 nM. The same measure for `NC(CCC1CC1)(c1ccncc1)c1ccc(F)c(NC(=O)[C@H]2C[C@](O)(c3ccccc3)CN2C(=O)Nc2ccc(Cl)cc2)c1` (stereo partly drawn) [Compound 40a, (2R,4S)-N2-(5-((+)-1-amino-3-cyclopropyl-1-(pyridin-4-yl)propyl)-2-fluorophenyl)-N1-(4-chlorophenyl)-4-hydroxy-4-phenylpyrrolidine-1,2-dicarboxamide]: less than 50 nM; for `CNC(CCC1CC1)(c1ccncc1)c1ccc(F)c(NC(=O)[C@H]2C[C@](O)(c3ccccc3)CN2C(=O)Nc2ccc(Cl)cn2)c1` (stereo partly drawn) [Compound 41a, (2R,4S)-N1-(5-chloropyridin-2-yl)-N2-(5-((+)-3-cyclopropyl-1-(methylamino)-1-(pyridin-4-yl)propyl)-2-fluorophenyl)-4-hydroxy-4-phenylpyrrolidine-1,2-dicarboxamide]: less than 50 nM; for `CO[C@@H]1C[C@H](C(=O)Nc2cc(C(CCC3CC3)n3ccccc3=O)ccc2F)N(C(=O)Nc2ccc(Cl)cn2)C1` (stereo partly drawn) [Compound 42l, (2R,4R)-N1-(5-chloropyridin-2-yl)-N2-(5-(3-cyclopropyl-1-(2-oxopyridin-1(2H)-yl)propyl)-2-fluorophenyl)-4-methoxypyrrolidine-1,2-dicarboxamide]: less than 50 nM.

For the molecule `CO[C@@H]1C[C@H](C(=O)Nc2cc(C(CCC3CC3)n3ccccc3=O)ccc2F)N(C(=O)Nc2ccc(Cl)cn2)C1` (stereo partly drawn) [Compound 43m, (2R,4R)-N1-(5-chloropyridin-2-yl)-N2-(5-((+)-3-cyclopropyl-1-(2-oxopyridin-1(2H)-yl)propyl)-2-fluorophenyl)-4-methoxypyrrolidine-1,2-dicarboxamide], the inhibition constant Ki was in the range of 50 to 100 nM. Take `CO[C@@H]1C[C@H](C(=O)Nc2cc(C(CCC3CC3)N3CCCCC3=O)ccc2F)N(C(=O)Nc2ccc(Cl)cn2)C1` (stereo partly drawn) [Compound 44e, (2R,4R)-N1-(5-chloropyridin-2-yl)-N2-(5-((+)-3-cyclopropyl-1-(2-oxopiperidin-1-yl)propyl)-2-fluorophenyl)-4-methoxypyrrolidine-1,2-dicarboxamide]: the Ki is more than 100 nM.

With `CO[C@]1(c2ccccc2)C[C@H](C(=O)Nc2cc(C(N)(CCC3CC3)c3ccncc3)ccc2F)N(C(=O)Nc2ccc(Cl)cn2)C1` (stereo partly drawn) [Compound 45c, (2R,4S)-N2-(5-((+)-1-amino-3-cyclopropyl-1-(pyridin-4-yl)propyl)-2-fluorophenyl)-N1-(5-chloropyridin-2-yl)-4-methoxy-4-phenylpyrrolidine-1,2-dicarboxamide], the Ki was more than 100 nM. The same measure for `CO[C@@H]1C[C@H](C(=O)Nc2cc(C(N)(CCC3CC3)c3ccnc(C)c3)ccc2F)N(C(=O)Nc2ccc(Cl)cn2)C1` (stereo partly drawn) [Compound 46k, (2R,4R)-N2-(5-((+)-1-amino-3-cyclopropyl-1-(2-methylpyridin-4-yl)propyl)-2-fluorophenyl)-N1-(5-chloropyridin-2-yl)-4-methoxypyrrolidine-1,2-dicarboxamide]: less than 50 nM; for `NC(CCC1CC1)(c1ccncc1)c1ccc(F)c(NC(=O)[C@H]2C[C@H](c3ccccc3)CN2C(=O)Nc2ccc(Cl)cn2)c1` (stereo partly drawn) [Compound 47d, (2R,4R)-N2-(5-((+)-1-amino-3-cyclopropyl-1-(pyridin-4-yl)propyl)-2-fluorophenyl)-N1-(5-chloropyridin-2-yl)-4-phenylpyrrolidine-1,2-dicarboxamide]: 50 to 100 nM; for `C[C@H]1C[C@H](C(=O)Nc2cc(C(N)(CCC3CC3)c3ccncc3)ccc2F)N(C(=O)Nc2ccc(Cl)cn2)C1` (stereo partly drawn) [Compound 48d, (2R,4S)-N2-(5-((+)-1-amino-3-cyclopropyl-1-(pyridin-4-yl)propyl)-2-fluorophenyl)-N1-(5-chloropyridin-2-yl)-4-methylpyrrolidine-1,2-dicarboxamide]: less than 50 nM.

`C[C@@H]1C[C@H](C(=O)Nc2cc(C(N)(CCC3CC3)c3ccncc3)ccc2F)N(C(=O)Nc2ccc(Cl)cn2)C1` (stereo partly drawn) [Compound 49d, (2R,4R)-N2-(5-((+)-1-amino-3-cyclopropyl-1-(pyridin-4-yl)propyl)-2-fluorophenyl)-N1-(5-chloropyridin-2-yl)-4-methylpyrrolidine-1,2-dicarboxamide]: the inhibition constant Ki was 50 to 100 nM. `CCO[C@@H]1C[C@H](C(=O)Nc2cc(C(N)(CCC3CC3)c3ccncc3)ccc2F)N(C(=O)Nc2ccc(Cl)cn2)C1` (stereo partly drawn) [Compound 51b, (2R,4R)-N2-(5-((+)-1-amino-3-cyclopropyl-1-(pyridin-4-yl)propyl)-2-fluorophenyl)-N1-(5-chloropyridin-2-yl)-4-ethoxypyrrolidine-1,2-dicarboxamide] gave an inhibitory constant (Ki) of less than 50 nM.
